Assays:
[1] = test system: latent HIV proviruses in memory CD4+ T-cells of HIV-1-infected subjects; assay: EDITS assay, inducible HIV env RNA in resting memory cells after ex vivo activation; format: cell-based
Excerpt: We developed a novel deep sequencing-based protocol (EDITS, Envelope Detection by Induced Transcription-based Sequencing) to measure RNA induction, capable of detecting inducible cell-associated HIV RNA. The EDITS Assay measures inducible HIV envelope RNA in infected cells, including patient-derived samples. The HIV envelope mRNA has been chosen because the splicing pattern covers a significant portion of the proviral genome, thus minimizing readouts from defective proviruses with large deletions (FIG. 1). Briefly, 1.25×10^6 resting memory cells from aviremic (<20 copies/ml) HIV-1-infected subjects are induced by one or more latency reversing agents (LRAs) and/or by engagement of the T-cell receptor (TCR).
FIG. 6 summarizes the protocol of the EDITS assay. Briefly, blood is collected from an HIV-infected individual and peripheral blood mononuclear cells (PBMCs) are purified. CD4^+ memory cells are negatively isolated using robotic magnetic bead isolation technology (Stemcell, 19157RF) and allowed to equilibrate in RPMI with 10% FBS, Primocin and 30 IU/ml of IL-2 overnight. 1.25 million cells are stimulated with one or more LRA (e.g., Concanavalin A) for 24 hours. […]
Fastq files are analyzed using a proprietary pipeline (bioinformatics tool) to not only quantify the amount of HIV-1 present in any given sample but also to determine viral diversity.

[2] = test system: HIV in purified CD4+ T-cells from HIV-1-infected men and women; assay: modified EDITS assay quantifying spreading viral infection (HIV RNA+ cells after Con A stimulation); format: cell-based; conditions: for number of HIV RNA positive cells per million: CD4+ memory cells stimulated 9 days with Con A in presence of 1 μM raltegravir; for spreading infection / HIV RNA induction: 300 pg/ml 17β-estradiol, 9 days; for spreading infection: absence of raltegravir, women compared to men (p=0.00052); for HIV RNA induction: women compared to men (p=0.00039)
Excerpt: It is contemplated that the quantification of the latent HIV-1 can occur before, during, and after the course of a therapeutic regimen in order to determine the efficacy of a chosen therapeutic regimen. One way to assess the efficacy of the HIV-1 therapeutic is to compare the latent HIV-1 reactivation pre and post therapeutic administration. The amount of cell associated inducible HIV env RNA measured in the sample can then be compared to a control to determine the efficacy of the antiviral and/or LRAs. The control can be the amount of cell associated inducible HIV env RNA measured in infected cells prior to the administration of the one or more antiviral and/or latency reversing agents. In order to evaluate sex differences in CD4+ T-cells from male and female subjects, methods described herein can be modified to include an additional in vitro step allowing for the quantification of spreading viral infections in the presence of candidate agents. Therefore, in optional embodiments, purified CD4+ T-cells are stimulated with an HIV transcription inducing agent in the absence or presence of an antiretroviral agent to block spreading of HIV infection and a candidate agent. The amount of newly infected cells can be determined by measuring the increase in HIV RNA+ cells in the absence of the infection blocking agent compared to cells stimulated in the presence of the infection blocking agent.
The number of newly infected cells was determined, in accordance with the methods described herein, by measuring the HIV RNA+ cells in the absence of raltegravir after nine days. It was shown that the addition of 17β-estradiol blocked both HIV RNA induction and spreading infection in women compared to men, consistent with previous observations that the estrogen receptor-1 (ESR-1) can act as a repressor of HIV transcription.
CD4^+ T-cells were isolated from cryopreserved PBMCs and the frequencies of cells harboring total and integrated HIV-1 DNA (tHIV and iHIV) were measured relative to CD3 copy number. Cell associated (CA) unspliced (usHIV) RNA was quantified and multiply-spliced (msRNA) was measured using the identical semi-nested PCR with different primers. Low level viremia was quantified from seven milliliters of plasma with PCR amplification targeting a conserved, untranslated HIV-1 gag RNA sequence (the HMMCgag assay). Inducible HIV-1 RNA was measured using the TILDA assay; briefly, purified CD4^+ T-cells are stimulated maximally with PMA/ionomycin, serially diluted, lysed and HIV-1 msRNA measured with a two-step RT-PCR. Maximum likelihood estimates based on the number of positive wells are used to determine the frequency of cells harboring inducible HIV-1. A modified version of the EDITS assay was used to quantify spreading viral infections. Purified CD4^+ T-cells were stimulated with the mitogen Concanavalin A (Con A) in the absence or presence of 1 μM Raltegravir (to block spreading infection) and absence or presence of 300 pg/ml 17β-estradiol. Newly infected cells were determined after nine days as the increase in HIV RNA+ cells in the absence of Raltegravir.
As a complementary method to evaluate sex differences CD4^+ T-cells from a subset of men (n=6) and women (n=6) who underwent leukapheresis were evaluated for the level of inducible replication competent virus using a modified EDITS assay (FIG. 10). Purified CD4^+ memory cells were stimulated for 9 days to induce HIV transcription in the presence or absence of raltegravir and number of HIV RNA^+ cells was quantified by EDITS. […] In the absence of raltegravir, there were 348 RNA positive cells per million for the women and 457 RNA positive cells per million for the men, indicating spreading infection.

[3] = Con A stimulation, listed as estrogen

Concanavalin A
efficiency of activation of RNA from proviruses ([1]; strong LRAs such as TCR activation or mitogen activation, applicant's estimate): greater than 75%

Cc1nnc(C(=O)NC(C)(C)c2nc(C(=O)NCc3ccc(F)cc3)c(O)c(=O)n2C)o1 [raltegravir]
viral spread ([2]; 1 μM raltegravir, 9 days culture, Con A stimulation): blocked
number of HIV RNA positive cells per million ([2]; men (n=6)): 80 RNA positive cells per million
number of HIV RNA positive cells per million ([2]; women (n=6)): 74 RNA positive cells per million

C[C@]12CC[C@@H]3c4ccc(O)cc4CC[C@H]3[C@@H]1CC[C@@H]2O [17β-estradiol]
spreading infection ([2]; Con A stimulation): potently blocked
spreading infection [2, 3]: potently blocked
HIV RNA induction ([2]; Con A stimulation): potently blocked
HIV RNA induction [2, 3]: potently blocked
proviral reactivation ([1]; samples activated ex vivo by TCR induction in presence and absence of Estradiol (FIG. 4)): potent inhibitor of proviral reactivation

Reference: patent US11624095B2, “Method of quantifying HIV reservoirs by induced transcription based sequencing” (priority 2017, dated 2023)
